Data published in patent publication US6855730B2, “3-methylidenyl-2-indolinone modulators of protein kinase” (Sugen, Inc., priority 1998, dated 2005).

Legend:
[1] = target: T1, PDGFR-β (Homo sapiens, UniProt P09619); assay: Biochemical PDGFR assay (ELISA, PDGFR-β expressing NIH 3T3 cell lysate); settings: read-out: bio PDGF IC50
T1 construct: host or cells: NIH 3T3
Summary of the method: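 PDGFR-β from NIH 3T3 cell lysate captured on anti-PDGFR (28D4C10)-coated plates; compound preincubated 30 min, then 20 μM ATP kinase reaction 30 min at room temperature, stopped with EDTA. Phosphotyrosine detected by anti-phosphotyrosine antibody, peroxidase conjugate and ABTS/H2O2, read at 410 nm.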

[2] = target: T2, flkGST (Homo sapiens, UniProt P35968); assay: bio flkGST assay; assay type: biochemical
T2 construct: GST

[3] = target: Myc-GyrB-FGFR fusion protein (Homo sapiens, UniProt P11362); assay: Biochemical FGFR assay (ELISA); settings: read-out: bio fgfR1 IC50
Chain of Myc-GyrB-FGFR fusion protein (P11362 478-767 limits assumed): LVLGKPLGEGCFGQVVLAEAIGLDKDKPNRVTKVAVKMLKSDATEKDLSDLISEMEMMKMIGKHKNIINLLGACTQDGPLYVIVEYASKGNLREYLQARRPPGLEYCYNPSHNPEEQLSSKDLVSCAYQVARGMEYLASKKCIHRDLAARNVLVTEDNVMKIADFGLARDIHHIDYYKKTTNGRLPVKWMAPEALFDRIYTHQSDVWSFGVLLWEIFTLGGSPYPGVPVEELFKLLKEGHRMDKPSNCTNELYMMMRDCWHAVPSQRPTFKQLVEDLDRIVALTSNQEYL

T2 sequence (P35968 786-1356 limits assumed): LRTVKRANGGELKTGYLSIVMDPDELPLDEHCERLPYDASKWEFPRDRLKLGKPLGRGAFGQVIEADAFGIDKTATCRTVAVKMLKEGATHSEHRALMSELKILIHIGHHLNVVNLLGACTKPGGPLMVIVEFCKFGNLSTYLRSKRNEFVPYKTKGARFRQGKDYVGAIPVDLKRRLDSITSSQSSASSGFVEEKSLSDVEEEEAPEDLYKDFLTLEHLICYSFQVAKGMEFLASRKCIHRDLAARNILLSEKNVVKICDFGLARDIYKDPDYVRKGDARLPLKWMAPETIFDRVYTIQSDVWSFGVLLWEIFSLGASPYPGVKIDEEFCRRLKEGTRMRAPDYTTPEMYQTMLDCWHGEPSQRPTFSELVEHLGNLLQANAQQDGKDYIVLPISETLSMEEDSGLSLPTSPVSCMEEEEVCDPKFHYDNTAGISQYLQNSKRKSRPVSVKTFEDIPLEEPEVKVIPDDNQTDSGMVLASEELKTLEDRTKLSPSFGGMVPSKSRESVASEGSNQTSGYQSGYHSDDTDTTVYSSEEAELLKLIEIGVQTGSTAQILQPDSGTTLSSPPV
T1 sequence (P09619 33-1106): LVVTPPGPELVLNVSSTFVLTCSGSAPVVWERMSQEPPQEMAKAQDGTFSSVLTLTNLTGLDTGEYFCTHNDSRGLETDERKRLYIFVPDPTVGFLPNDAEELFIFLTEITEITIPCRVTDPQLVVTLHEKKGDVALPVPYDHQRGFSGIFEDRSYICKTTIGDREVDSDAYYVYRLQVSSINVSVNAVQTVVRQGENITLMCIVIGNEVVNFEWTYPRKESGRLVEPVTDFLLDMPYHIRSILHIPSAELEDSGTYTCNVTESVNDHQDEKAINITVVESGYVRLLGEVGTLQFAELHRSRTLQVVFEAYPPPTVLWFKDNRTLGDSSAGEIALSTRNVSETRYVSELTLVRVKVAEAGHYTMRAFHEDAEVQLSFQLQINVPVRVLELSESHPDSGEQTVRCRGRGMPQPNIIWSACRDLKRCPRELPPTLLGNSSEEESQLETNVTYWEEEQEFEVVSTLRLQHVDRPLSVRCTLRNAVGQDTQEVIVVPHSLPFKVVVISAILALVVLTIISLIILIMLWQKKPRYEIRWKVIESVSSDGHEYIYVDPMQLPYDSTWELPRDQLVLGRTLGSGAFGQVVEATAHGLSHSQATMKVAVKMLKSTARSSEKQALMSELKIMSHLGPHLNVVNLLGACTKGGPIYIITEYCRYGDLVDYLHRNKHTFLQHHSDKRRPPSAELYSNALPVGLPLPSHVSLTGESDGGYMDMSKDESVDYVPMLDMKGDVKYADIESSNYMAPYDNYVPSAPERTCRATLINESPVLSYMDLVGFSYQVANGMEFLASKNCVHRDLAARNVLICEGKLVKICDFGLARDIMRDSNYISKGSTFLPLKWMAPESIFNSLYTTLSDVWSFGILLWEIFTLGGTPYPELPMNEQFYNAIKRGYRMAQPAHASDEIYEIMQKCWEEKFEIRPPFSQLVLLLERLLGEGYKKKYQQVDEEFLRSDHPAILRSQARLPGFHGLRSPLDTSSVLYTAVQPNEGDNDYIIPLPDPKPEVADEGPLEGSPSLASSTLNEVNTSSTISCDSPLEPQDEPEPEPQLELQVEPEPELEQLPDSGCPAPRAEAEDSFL

IC50 [1] | IC50 [2] | IC50 [3] | SMILES
> 100 µM | – | – | COc1cc(/C=C2/C(=O)Nc3ccccc32)c(-c2ccc3ccccc3c2)cc1OC [Example 62, 3-(4,5-Dimethoxy-2-naphthalen-2-ylbenzylidene)-1,3-dihydroindol-2-one]
> 100 µM | – | – | COc1ccc(/C=C2/C(=O)Nc3ccc(Br)cc32)cc1-c1ccccc1 [Example 13, 5-Bromo-3-(6-methoxybiphenyl-3-ylmethylene)-1,3-dihydroindol-2-one]
> 100 µM | – | – | COc1ccc(/C=C2/C(=O)Nc3ccc(Cl)cc32)cc1-c1cccs1 [Example 59, 5-chloro-3-(4-Methoxy-3-thiophen-2-ylbenzylidene)-1,3-dihydroindol-2-one]
> 100 µM | – | – | COc1ccc(/C=C2/C(=O)Nc3ccc(F)cc32)cc1C(C)C [Example 44, 5-Fluoro-3-(3-isopropyl-4-methoxybenzylidene)-1,3-dihydroindol-2-one]
> 100 µM | – | – | COc1cccc(-c2cc(OC)c(OC)cc2/C=C2/C(=O)Nc3ccc(Cl)cc32)c1 [Example 61, 5-Chloro-3-(4,5-3′-Trimethoxybiphenyl-2-ylmethylene)-1,3-dihydroindol-2-one]
11 µM | – | – | COc1ccc(/C=C2/C(=O)Nc3ccc(F)cc32)cc1C1CCCCC1 [Example 43, 3-(3-Cyclohexyl-4-methoxybenzylidene)-5-fluoro-1,3-dihydroindol-2-one]
> 100 µM | – | – | COc1ccc(/C=C2/C(=O)Nc3ccc(F)cc32)cc1-c1ccccc1 [Example 37, 5-Fluoro-3-(6-methoxybiphenyl-3-ylmethylene)-1,3-dihydroindol-2-one]
> 100 µM | – | – | CCOc1cccc(-c2cc(OC)c(OC)cc2/C=C2/C(=O)Nc3ccccc32)c1 [Example 58, 3-(3′-Ethoxy-4,5-dimethoxybiphenyl-2-ylmethylene)-1,3-dihydroindol-2-one]
56.7 µM | – | – | CC1(C)CCc2cc(C=C3C(=O)Nc4ccc(Br)cc43)ccc2O1 (racemic) [Example 34, 5-Bromo-3-(2,2-dimethylchroman-6-ylmethylene)-1,3-dihydroindol-2-one]
> 100 µM | – | – | COc1cc(/C=C2/C(=O)Nc3ccccc32)c(-c2cccs2)cc1OC [Example 39, 3-(4,5-Dimethoxy-2-thiophen-2-ylbenzylidene)-1,3-dihydroindol-2-one]
> 100 µM | 24.1 µM | – | COc1ccc(/C=C2/C(=O)Nc3ccc(F)cc32)cc1C1CCCC1 [Example 11, 3-(3-Cyclopentyl-4-methoxybenzylidene)-5-fluoro-1,3-dihydroindol-2-one]
> 100 µM | – | – | COc1cc(C)c(/C=C2/C(=O)Nc3ccc(Br)cc32)cc1C(C)C [Example 36, 5-Bromo-3-(5-isopropyl-4-methoxy-2-methyl-benzylidene)-1,3-dihydroindol-2-one]
> 100 µM | – | – | CC(C)c1cc(/C=C2/C(=O)Nc3ccc(Cl)cc32)cc(C(C)C)c1OCCN1CCOCC1 [Example 24, 5-chloro-3-[3,5-diisopropyl-4-(2-morpholin-4-ylethoxy)-benzylidene]-1,3-dihydroindol-2-one]
> 100 µM | – | – | COc1cc(C)c(/C=C2/C(=O)Nc3ccc(F)cc32)cc1C(C)C [Example 30, 5-Fluoro-3-(5-isopropyl-4-methoxy-2-methyl-benzylidene)-1,3-dihydroindol-2-one]
24.5 µM | – | – | COc1ccc(/C=C2/C(=O)Nc3ccc(Cl)cc32)cc1-c1cccnc1 [Example 60]
> 100 µM | – | – | COc1cc(C=C2C(=O)Nc3ccccc32)c(-c2ccccc2OC)cc1OC [Example 49, 3-(4,5,2′-Trimethoxybiphenyl-2-ylmethylene)-1,3-dihydroindol-2-one]
48.7 µM | – | > 20 µM | O=C1Nc2ccc(Br)cc2/C1=C/c1cc2ccccc2[nH]1 [Example 165, 5-Bromo-3-(1H-indol-2-ylmethylene)-1,3-dihydro-indol-2-one]
> 100 µM | – | – | CC(C)c1cc(/C=C2/C(=O)Nc3ccc(Br)cc32)cc(C(C)C)c1OCCN1CCOCC1 [Example 57, 5-Bromo-3-[3,5-diisopropyl-4-(2-morpholin-4-ylethoxy)benzylidene]-1,3-dihydroindol-2-one]
> 100 µM | – | – | COc1cc(C)c(C=C2C(=O)Nc3cc(NC(C)=O)ccc32)cc1C(C)C [Example 27, N-[3-(5-Isopropyl-4-methoxy-2-methyl-benzylidene)-2-oxo-2,3-dihydro-1H-indol-6-yl]-acetamide]

Continued, compound first:

SMILES | IC50 [1] | IC50 [2] | IC50 [3]
COc1ccc(C=C2C(=O)Nc3cc(NC(C)=O)ccc32)cc1-c1cccc(NC(C)=O)c1 (mixture of isomers) [Example 63, N-[3-(3′-Acetylamino-6-methoxybiphenyl-3-ylmethylene)-2-oxo-2,3-dihydro-1H-indol-6-yl]-acetamide] | > 100 µM | – | –
COc1ccc2c(c1)NC(=O)/C2=C/c1ccc(OC)c(-c2ccsc2)c1 [Example 64, 6-Methoxy-3-(4-methoxy-3-thiophen-3-ylbenzylidene)-1,3-dihydroindol-2-one] | > 100 µM | – | –
CC(=O)Nc1ccc2c(c1)NC(=O)/C2=C\c1ccc2c(c1)CCC(C)(C)O2 [Example 33, N-[3-(2,2-Dimethylchroman-6-ylmethylene)-2-oxo-2,3-dihydro-1H-indol-6-yl]-acetamide] | > 100 µM | – | –
CC(=O)Nc1ccc2c(c1)NC(=O)/C2=C/c1ccc(OCCN2CCOCC2)c(C2CCCCC2)c1 [Example 16, N-{3-[3-Cyclohexyl-4-(2-morpholin-4-ylethoxy)-benzylidene]-2-oxo-2,3-dihydro-1H-indol-6-yl}-acetamide] | > 100 µM | – | –
Cc1cc(CCC(=O)O)c(/C=C2\C(=O)Nc3cc(-c4ccc(F)cc4)ccc32)[nH]1 [Example 107, 3-{2-[6-(4-Fluorophenyl)-2-oxo-1,2-dihydroindol-3-ylidenemethyl]-5-methyl-1H-pyrrol-3-yl}propionic acid] | < 0.78 µM | 2.15 µM | 6.16 µM
Cc1cccc2c1/C(=C/c1cc3ccccc3[nH]1)C(=O)N2 [Example 166, 3-(1H-indol-2-ylmethylene)-4-methyl-1,3-dihydro-indol-2-one] | > 100 µM | – | > 20 µM
O=C1Nc2ccc(F)cc2/C1=C\c1ccc2c(c1)CCO2 [Example 42, 3-(2,3-Dihydrobenzofuran-5-ylmethylene)-5-fluoro-1,3-dihydroindol-2-one] | 43.1 µM | – | –
Cc1cccc2c1/C(=C/c1ccc3c(c1)CCC(C)(C)O3)C(=O)N2 [Example 41, 3-(2,2-Dimethylchroman-6-ylmethylene)-4-methyl-1,3-dihydroindol-2-one] | > 100 µM | – | –
COc1ccc(/C=C2/C(=O)Nc3cc(NC(C)=O)ccc32)cc1-c1ccsc1 [Example 18, N-[3-(4-Methoxy-3-thiophene-3-ylbenzylidene)-2-oxo-2,3-dihydro-1H-indol-6-yl]-acetamide] | 86.9 µM | – | –
CC1(C)CCc2cc(/C=C3/C(=O)Nc4ccc(Cl)cc43)ccc2O1 [Example 15, 5-Chloro-3-(2,2-dimethyl-chroman-6-ylmethylene)-1,3-dihydroindol-2-one] | 26.5 µM | – | –
CC(=O)Nc1ccc2c(c1)NC(=O)/C2=C/c1ccc(OCCN2CCOCC2)c(C(C)(C)C)c1 [Example 55, N-{3-[3-tert-Butyl-4-(2-morpholin-4-ylethoxy)-benzylidene]-2-oxo-2,3-dihydro-1H-indol-6-yl}-acetamide] | > 100 µM | – | –
COc1ccc(C=C2C(=O)Nc3ccccc32)cc1-c1cccc(NC(C)=O)c1 [Example 29, N-[2′-Methoxy-5′-(2-oxo-1,2-dihydroindol-3-ylidenemethyl)-biphenyl-3-yl]-acetamide] | > 100 µM | – | –
Cc1cc(CCC(=O)O)c(/C=C2\C(=O)Nc3ccc(Cl)cc32)[nH]1 [Example 111, 3-[2-(5-Chloro-2-oxo-1,2-dihydroindol-3-ylidenemethyl)-5-methyl-1H-pyrrol-3-yl]propionic acid] | 0.01 µM | 0.43 µM | 0.47 µM
COc1ccccc1-c1ccc2c(c1)NC(=O)/C2=C\c1[nH]c(C)cc1CCC(=O)O [Example 109, 3-{2-[6-(2-Methoxyphenyl)-2-oxo-1,2-dihydroindol-3-ylidenemethyl]-5-methyl-1H-pyrrol-3-yl}-propionic acid] | 2.79 µM | 2.68 µM | > 20 µM
CC(=O)Nc1ccc2c(c1)NC(=O)/C2=C/c1ccc(OCCN2CCOCC2)c(-c2ccsc2)c1 [Example 50, N-{3-[4-(2-Morpholin-4-ylethoxy)-3-thiophen-3-ylbenzylidene]-2-oxo-2,3-dihydro-1H-indol-6-yl}-acetamide] | > 100 µM | – | –
CCOc1cccc(-c2cc(C=C3C(=O)Nc4ccccc43)ccc2OC)c1 [Example 46, 3-(3′-Ethoxy-6-methoxybiphenyl-3-ylmethylene)-1,3-dihydroindol-2-one] | > 100 µM | – | –
COc1ccc(/C=C2/C(=O)Nc3cc(NC(C)=O)ccc32)cc1-c1cccs1 [Example 31, N-[3-(4-Methoxy-3-thiophen-2-ylbenzylidene)-2-oxo-2,3-dihydro-1H-indol-6-yl]-acetamide] | > 100 µM | – | –
CCOC(=O)c1c(C)[nH]c(/C=C2\C(=O)Nc3cc(-c4ccccc4OC)ccc32)c1CCC(=O)O [Example 110, 4-(2-Carboxyethyl)-5-[6-(2-methoxyphenyl)-2-oxo-1,2-dihydro-indol-3-ylidenemethyl]-2-methyl-1H-pyrrol-3-yl-carboxylic acid ethyl ester] | 3.15 µM | 3.05 µM | 17.5 µM
COc1ccc(/C=C2/C(=O)Nc3ccccc32)cc1-c1ccsc1 [Example 35, 3-(4-Methoxy-3-thiophen-3-ylbenzylidene)-1,3-dihydroindol-2-one] | > 100 µM | – | –
CC(=O)Nc1ccc2c(c1)NC(=O)/C2=C/c1ccc(OCCN2CCOCC2)c(-c2cccs2)c1 [Example 40, N-{3-[4-(2-Morpholin-4-ylethoxy)-3-thiophen-2-ylbenzylidene]-2-oxo-2,3-dihydro-1H-indol-6-yl}-acetamide] | > 100 µM | – | –
